These are literature values, as cited in patent US5837715A, “3-fluoro-4-aminopiperidine derivatives as 5-HT receptor agonists” (Merck Sharp & Dohme Ltd., priority 1997, dated 1998).

Structures are written as SMILES.

For series [1], the system named is human 5-HT1D.sbsb.α and 5-HT1D.sbsb.β receptor subtypes. Particulars: cf. WO-A-91/17174, Table 1.
For series [2] the following is noted: humans, therapeutic doses.

Regarding `CNS(=O)(=O)Cc1ccc2[nH]cc(CCN(C)C)c2c1` [sumatriptan], the “discrimination between the human 5-HT1D.sbsb.α and 5-HT1D.sbsb.β receptor subtypes” value in series [1] is on record as “barely discriminates”. The adverse cardiovascular events result in series [2] is reported as “certain adverse cardiovascular events”.
